Molecules are shown by their SMILES.

The experiment deals with MDM4 and SmD1-me2S. Briefly: Mouse A375 Tumor Xenograft MDM4 and SmD1-me2S Western Blot Assay. It is filed as in vivo. The settings on record: A-375, PO given QD or BID, tumors 4 hr after last dose, 4 days of dosing, read-out: dose achieving 50% effect (ED50). The protocol:
Grow A375 cells in medium (DMEM high glucose/10% Hi FBS) at 37° C. in an incubator (5% CO2) for 18-24 hr. Mix the cells with MATRIGEL® (1:1) and implant the cells (5×10^6/animal) subcutaneously into the rear flank of the mice (female nude mice, Harlan). The implanted tumor cells grow as solid tumors. Measure the tumor volume and body weight twice a week with a caliper. After tumor volume reaches approximately 200-250 mm^3 (about 20 days after implant), randomize the animals, and group them into compound treatment groups. Administer the test compounds (formulated in SWFI with 1% HEC/0.25% TWEEN® 80/0.05% Antifoam) by oral gavage. Test compound doses are in the range of 3 to 100 mg/kg. Sacrifice mice 4 hr after the last dose (4 days of dosing).
Mouse A375 Tumor Xenograft MDM4 and SmD1-me2S Western Blot Assay
For western blotting, homogenize the tumor tissues as performed above in 500 μL of kit XY lysis buffer including protease inhibitor cocktail complete Mini (Roche, cat. #: 11 836 170 001) [this cocktail contains […] Trypsin-Chymotrypsin Inhibitor (Sigma cat. # T9777); 10 μg/mL TPCK (Sigma cat. # T4376); 10 μg/mL Aprotinin (Sigma cat. # A1153); 60 mM Beta-Glycerophosphate disodium salt hydrate (Sigma cat. # G9891); 1% TRITON™ X-100 (Sigma cat. # T9284); 25 mM Tris pH ˜7.5 (INVITROGEN™ cat. #15567-027); 2.5 mM sodium pyrophosphate dibasic (Fluka cat. #71501); 300 mM […] (Mallinckrodt cat. #7581); 2 mM TAME (Sigma cat. # T4626); 15 mM pNPP (pNPP disodium salt hexahydrate, Sigma cat. #P4744); 5 mM benzamidine hydrochloride hydrate (Sigma cat. #B6506); 10 mM sodium fluoride (Sigma cat. #S-7920); 1 mM sodium metavanadate anhydrous (Sigma cat. #59088); […]. 1 mM DTT (Sigma cat. # D9779); 15 mM EDTA pH ˜8.0 (INVITROGEN™ cat. #15575020); 5 mM EGTA pH ˜8.0 (Sigma cat. #E3889); […] (Fisher/Axxora cat. # A350012m001); 0.25 mM Pefa Bloc (Sigma cat. #76307). Spin the protein lysates down at 8,000 rpm for 10 min and transfer supernatants to 1.5 mL tubes for sonication (amplitude 25% yield) for 15 seconds. […]
In the case of `Nc1ncnc2c1ccn2[C@@H]1O[C@H]([C@H](O)c2ccc(Cl)cc2)[C@@H](O)[C@H]1O` [Example 1, (2R,3R,4S,5R)-2-(4-Aminopyrrolo[2,3-d]pyrimidin-7-yl)-5-[(R)-(4-chlorophenyl)-hydroxy-methyl]tetrahydrofuran-3,4-diol], the median effective dose (ED50) is at most 30 mg/kg.
Regarding `Nc1ncnc2c1ccn2[C@@H]1O[C@H]([C@H](O)c2ccccc2)[C@@H](O)[C@H]1O` [Example 2, (2R,3R,4S,5R)-2-(4-Aminopyrrolo[2,3-d]pyrimidin-7-yl)-5[(R)-hydroxy(phenyl)methyl]tetrahydrofuran-3,4-diol], the ED50 was at most 30 mg/kg.
Regarding `C[C@@](O)(c1ccc(Cl)cc1)[C@H]1O[C@@H](n2ccc3c(N)ncnc32)[C@H](O)[C@@H]1O` [Example 3, (2R,3R,4S,5S)-2-(4-Aminopyrrolo[2,3-d]pyrimidin-7-yl)-5-[(1R)-1-(4-chlorophenyl)-1-hydroxy-ethyl]tetrahydrofuran-3,4-diol], the ED50 was at most 30 mg/kg.

(Values after patent US9840532B2, “5′-substituted nucleoside compounds” (Eli Lilly and Company, priority 2015, dated 2017).)
